Results on 14 molecules are retold here after PubChem BioAssay (NCI).

Each structure is given as a SMILES string.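 Following 48 hours of exposure in 96-well plates, responses at five concentrations were used to interpolate endpoints linearly. Here, GI50 denotes the concentration required for 50% inhibition of growth. Definition used: TGI = concentration required for complete inhibition of growth.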 Bounds are passed on as bounds.

What all share (assay): NCI-60 cell line screen, 48 h
Test [1] deals with MDA-MB-231 breast.
The test system of test [2] is HOP-62 NSCLC.
Test [3] has as its system HOP-92 NSCLC.
Test [4] relates to UO-31 renal.
Test [5] relates to DU-145 prostate.
Test [6] concerns MDA-MB-435.
Test [7] deals with HT29 colon.
For test [8], the system named is 786-0 renal.
For test [9], the system named is OVCAR-5 ovarian.
Test [10] deals with BT-549 breast.

As to `N/N=C1\CC(=O)NC(=O)N1`, the TGI in [1], in test [2], in test [3], in test [4], in [5] and in test [6] was more than 100 µM throughout. The TGI in test [7], in [8], in test [9] and in test [10] was more than 100 µM in each case.

With `Cc1ccc(C2=Nc3ccccc3SC(c3cccc([N+](=O)[O-])c3)C2)cc1` (stereo unspecified), the TGI in test [1] was more than 100 µM; in [2], more than 100 µM; in test [3], 81.3 µM; in [4], 23 µM; in [5], more than 100 µM; in [6] it was 79.2 µM. Moreover, the TGI in test [7] was more than 100 µM; in [8] it was 27 µM; in test [9] it was more than 100 µM; in test [10], 83.6 µM.

On to `O=C1NC(=O)C(c2cccc(Cl)c2)=C1Nc1ccc(O)c(Cl)c1`, for which the GI50 in test [1] is 16.1 µM; in test [2] it was 9.57 µM; in test [3], 5.76 µM; in test [4] it was 7.93 µM; in test [5] it was 14.1 µM; in test [6], 3.28 µM. Besides, the GI50 in test [7] is 10 µM; in test [8], 12.1 µM; in test [9] it was 22.4 µM; in [10], 11.3 µM. Also, the TGI is more than 25 µM in [1]; 24.3 µM in test [2]; more than 25 µM in test [3]; more than 25 µM in test [4]; more than 25 µM in test [5]; more than 25 µM in test [6]. Also, the TGI in test [7], in test [8], in test [9] and in test [10] was more than 25 µM throughout.

On to `CN1CCC(n2cnc(-c3ccc(F)cc3)c2-c2ccnc(N)n2)CC1`, for which the GI50 in test [1] was 13.5 µM; in test [2] it was 9.44 µM; in test [3], 3.99 µM; in test [4], 2.55 µM; in test [5], 10.7 µM; in test [6], 8.82 µM. Moreover, the GI50 is 6.2 µM in test [7], 11.6 µM in [8], 13.8 µM in [9] and 15.3 µM in test [10]. Also, the TGI in test [1] is more than 25 µM; in test [2], more than 25 µM; in test [3] it was 24 µM; in test [4] it was 16.1 µM; in test [5], more than 25 µM; in test [6], more than 25 µM. Besides, the TGI in test [7], in test [8], in test [9] and in test [10] was more than 25 µM throughout.

For `CC(=O)c1c(C(F)(F)F)n([O-])c2ccc(C)cc2[n+]1=O`, the GI50 is 1.82 µM in test [1]; 3.64 µM in test [2]; 1.11 µM in [3]; 4.39 µM in test [4]; 1.43 µM in test [5]; 6.99 µM in [6]. Further, the GI50 is 4.96 µM in [7], 1.47 µM in test [8], 7 µM in [9] and 2.54 µM in test [10]. Further, the TGI in test [1] was 5.52 µM; in [2], 21.9 µM; in test [3], 4.81 µM; in test [5], 3.07 µM; in [6], 35.9 µM; in test [7], more than 100 µM. For the same molecule, the TGI was determined as 4.7 µM in test [8], 40.3 µM in test [9] and 8.66 µM in [10].

For the molecule `CC(C)=CCC/C(C)=C/CC/C(C)=C/CC/C=C(\C)CC/C=C(\C)CCC(=O)Nc1ccn(C2OC(CO)C(O)C2(F)F)c(=O)n1` (stereo unspecified), the GI50 in test [1] was 12.8 µM; in test [2] it was 0.0507 µM; in [3], 0.435 µM; in [4], 0.0501 µM; in test [5] it was 0.0455 µM; in [6], 0.144 µM. In addition, the GI50 is 0.594 µM in test [7], less than 0.0157 µM in [8] and 1.21 µM in test [9]. Besides, the TGI in test [1] was 27.1 µM; in [2], 2.38 µM; in [3], 11.5 µM; in test [4], 14.7 µM; in test [5] it was 3.23 µM; in [6] it was 7.58 µM. Also, the TGI in test [7] is 48.9 µM; in test [8] it was less than 0.0341 µM; in test [9], 26.3 µM; in test [10] it was 0.472 µM.

As to `COc1ccc2cc(-c3c(-c4ccncc4)nc(-c4ccc(S(C)=O)cc4)n3C)ccc2c1` (stereo unspecified), the GI50 in test [1] is more than 25 µM; in test [2], more than 21.1 µM; in [3] it was 5.67 µM; in test [4], 6.42 µM; in [5], more than 25 µM; in [6] it was 14.6 µM. Also, the GI50 in [7] was 9.06 µM; in [8], 16.7 µM; in [9], more than 25 µM; in [10] it was 21.1 µM. The TGI in [1], in test [2], in [3], in test [4], in [5] and in test [6] was more than 25 µM each time. Also, the TGI in test [7], in test [8], in test [9] and in [10] was more than 25 µM each time.

As to `CC1(C)N=C(N)N=C(N)N1c1ccc(CCCCc2ccc(S(=O)(=O)F)cc2)c(Cl)c1`, the GI50 was 1.76 µM in test [1]; 1.45 µM in test [2]; 5.56 µM in test [3]; 9.59 µM in test [4]; 0.484 µM in test [5]; 0.0666 µM in test [6]. The GI50 is 0.0566 µM in test [7], 0.224 µM in test [8], 0.124 µM in test [9] and 9.61 µM in test [10]. For the same molecule, the TGI in test [1] is 21.2 µM; in test [2] it was 23.7 µM; in test [3], 26.1 µM; in test [4], more than 100 µM; in test [5], 17.5 µM; in [6], 16.6 µM. For the same molecule, the TGI in test [7] was 15.3 µM; in test [8] it was 19.3 µM; in test [9], 83.8 µM; in test [10] it was 22.5 µM.

As for `COc1ccc(C(=O)N2c3ccccc3Sc3ccccc32)c(OC)c1`, the GI50 was 0.83 µM in [1]; 0.822 µM in test [2]; 0.374 µM in test [3]; 0.739 µM in [4]; 0.491 µM in test [5]; 0.212 µM in [6]. Besides, the GI50 in test [7] is 0.385 µM; in test [8] it was 0.48 µM; in [9], 10 µM; in test [10], 0.659 µM. Also, the TGI in [1] was more than 100 µM; in test [2] it was more than 100 µM; in test [3] it was 97.2 µM; in [4], more than 100 µM; in test [5], more than 100 µM; in test [6], 0.953 µM. The TGI in test [7], in [8], in test [9] and in test [10] was more than 100 µM each time.

Regarding `BrCc1ccc(CBr)cc1`, the GI50 in test [1] was 13.9 µM; in test [2], 4.23 µM; in test [3] it was 18.7 µM; in [4], 7.58 µM; in test [5], 3.38 µM; in test [6], 5.56 µM. Further, the GI50 is 4.38 µM in test [7], 2.59 µM in test [8] and 9.61 µM in test [9]. The TGI was 35.1 µM in [1]; 9.68 µM in test [2]; 53.7 µM in test [3]; more than 63.2 µM in [4]; 12.9 µM in test [5]; 15.6 µM in test [6]. Besides, the TGI is more than 23.9 µM in test [7], 8.63 µM in [8], 29.1 µM in test [9] and 3.8 µM in [10].

On to `C[C@@H]1O[C@@H](O[C@H]2CC[C@@]3(C)[C@H](CCC4[C@@H]3C(O)C[C@]3(C)[C@@H](c5ccc(=O)oc5)CC[C@]43O)C2)[C@H](O)[C@H](O)[C@H]1O` (stereo partly specified), for which the GI50 is 0.0112 µM in test [1]; 0.00389 µM in [2]; 0.00786 µM in [3]; 0.00577 µM in [4]; 0.00355 µM in test [5]; 0.00633 µM in test [6]. Besides, the GI50 in test [7] was 0.00481 µM; in test [8] it was 0.00409 µM; in test [9], 0.00583 µM; in [10] it was less than 0.00325 µM. The TGI is 0.0369 µM in [1]; 0.0057 µM in test [2]; 0.0216 µM in test [3]; 0.015 µM in [4]; 0.00516 µM in test [5]; 0.0131 µM in test [6]. Further, the TGI in [7] was 0.00975 µM; in test [8], 0.0169 µM; in test [9], less than 0.0113 µM; in test [10] it was 0.00448 µM.

Turning to `C#CCOc1cccc(Nc2ncnc3c(NC(=O)CCl)cccc23)c1`, the GI50 in [1] is 22.9 µM; in test [2] it was 25.8 µM; in [3] it was 17 µM; in [4], 15.5 µM; in test [5], 17.2 µM; in test [6] it was 26.2 µM. The GI50 is 18.6 µM in test [7], 18.7 µM in test [8], 21.3 µM in test [9] and 19.3 µM in test [10]. The TGI is 61 µM in [1]; 86.3 µM in [2]; 33.8 µM in test [3]; 39.2 µM in [4]; 37.8 µM in test [5]; more than 100 µM in test [6]. Besides, the TGI is 34.4 µM in test [7], 37.9 µM in test [8], 57 µM in [9] and 62.5 µM in test [10].

As for `COc1ccc2c(c1)OC1=C(C(=O)OC1)C2c1cc(OC)c2c(c1)OCO2` (stereo unspecified), the GI50 in [1] is 0.0689 µM; in test [2] it was 0.0411 µM; in [3] it was 28.6 µM; in test [4], 0.689 µM; in test [5], 0.0364 µM; in test [6] it was less than 0.0122 µM. For the same molecule, the GI50 in test [7] was 0.0328 µM; in test [8] it was 0.0506 µM; in test [9], 0.153 µM. In addition, the TGI in test [1] was more than 100 µM; in [2], more than 100 µM; in test [3] it was more than 100 µM; in test [4], more than 100 µM; in test [5], 0.459 µM; in test [6], 0.0371 µM. Also, the TGI in test [7], in test [8], in test [9] and in test [10] was more than 100 µM each time.

In the case of `O=C(Nc1cccc(Nc2ncc(Br)c(NCCc3cnc[nH]3)n2)c1)N1CCCC1`, the GI50 is 4.07 µM in test [1]; 2.35 µM in test [2]; 0.932 µM in test [3]; 13.4 µM in [4]; 7.08 µM in test [5]; 2.62 µM in test [6]. In addition, the GI50 in test [7] was 3.85 µM; in test [8], 9.36 µM; in test [9], 9.29 µM; in [10], 2.04 µM. The TGI in test [1] is 29.2 µM; in [2] it was 14.7 µM; in test [3], 7.93 µM; in [4] it was 45.8 µM; in [5], 36.5 µM; in test [6], 18.5 µM. Also, the TGI worked out at 24.2 µM in test [7], 32.6 µM in test [8], 73.1 µM in [9] and 13 µM in test [10].
